Data taken from publication PMC4459817, “Vasculotide reduces endothelial permeability and tumor cell extravasation in the absence of binding to or agonistic activation of Tie2” (EMBO Molecular Medicine, 2015).
“Also recorded” adds a separate entry of the source.

What was measured:
[1] = tested on: LM2-4luc lymphatic metastases in SCID mice; experiment: experimental LM2-4luc lymphatic metastasis model (IV); type: in vivo, human LM2-4luc cells in CB-17 SCID mice; conditions: n = 12; for progression of lymphatic metastases (bioluminescence): VT 250 ng/2d, SU pretreatment, Kruskal–Wallis, Fig2F–H
Text: (C and G) Photographs of typical metastases in the lungs and caudal lymphatics, respectively. […] Geometric means ± 95%CI are depicted in (D and H); P values were derived by one-way ANOVA (D) and Kruskal–Wallis test (H). […] TEXT PRINTED IN THE PICTURE: (A) Vasculotide (VT): Hazard ratio = 0.13 (95% CI, 0.03 to 0.63) | (A) SU+VT: Hazard ratio = 0.19 (95% CI, 0.04 to 0.81) DOUBTS OF THE COPYIST ABOUT THIS PICTURE: Vasculotide (VT), Hazard ratio: small print; 0.13 could be 0.15 or 0.18, and the CI limits 0.03 and 0.63 are uncertain in the digits 3/5/6/8 / SU+VT, Hazard ratio: small print; 0.19 could be 0.18 or 0.16, and the CI limits 0.04 and 0.81 are uncertain in the digits / Panel A: each hazard ratio is printed under a pair of legend entries (Vehicle / Vasculotide (VT), and Sunitinib (SU) / SU+VT). Assigning it to the VT-treated arm of each pair is my assumption.
In vivo experiments were performed in strict accordance with protocols approved by the Sunnybrook Research Institute Animal Care Committee, accredited by the Canadian Council of Animal Care. All surgical, imaging, and euthanasia procedures were performed under inhaled isoflurane anesthesia. Experimental metastasis models involved injections of 10^6 tumor cells, suspended in 200 μl serum-free DMEM, into the mouse tail vein. LM2-4^luc implantations were performed on 6 to 8-week-old female CB-17 SCID mice (Charles River Canada). […]
For in vivo BI: Mice were injected intraperitoneally with 150mg/kg luciferin (Promega) 10 minutes prior to and anesthetized with isofluorane just before luminescent pseudocolor imaging (uniform settings: CCD camera locked at -105 °C, exposure=60s, f/1, subject size=1.5cm, bin=8, FOV=23.2cm, full image correction) using the IVIS 200 Imaging System (Caliper/PerkinElmer). Using the Living Image software (v2.50.1, Xenogen), weekly images were analyzed under uniform color range on grayscale photographic overlay. Total fluxes (photons/sec) were quantified within consistent regions of interest and statistically compared ideally at a timepoint before any deaths have occurred. […]

Tie2 = conditions: PEGylated VT, earlier reports; ref not printed at the statement; cited from earlier work
Text: (§1) For therapeutic use, recombinant variants or mimetics of multimeric Ang1 have been engineered, including Ang1* and Ang-F1-Fc-F1/Bow-Ang1 (Davis et al, [2003]; Daly et al, [2013]), MAT-Ang1 and COMP-Ang1 (Cho et al, [2004]; Koh, [2013]). […] The development of VT was inspired by a 2004 paper, where several heptapeptides—with no sequence homology to Ang1—were identified to have Tie2-binding potential through an ...

[2] = tested on: in vivo model of abdominal sepsis; conditions: ref Kumpers et al, 2011; cited from earlier work
Text: as §1

[3] = tested on: lung vascular hyperpermeability in endotoxemic mice; conditions: ref David et al, 2011; cited from earlier work
Text: as §1

[4] = tested on: mouse model of skin toxicity from cancer radiotherapy; conditions: ref Korpela et al, 2014; cited from earlier work
Text: as §1

| Molecule | progression of lymphatic metastases (bioluminescence) ([1]; listed as SU) | progression of lymphatic metastases (bioluminescence) [1] | survival rates ([1]; VT, Fig2E, listed as VT) | Tie2 phosphorylation (Tie2) | intraperitoneal leukocyte influx [2] | inflammatory induction of lung vascular hyperpermeability [3] | wound healing [4] |
| --- | --- | --- | --- | --- | --- | --- | --- |
| CCN(CC)CCNC(=O)c1c(C)[nH]c(/C=C2\C(=O)Nc3ccc(F)cc32)c1C [sunitinib, reference compound] | did not similarly promote lymphatic metastases; also recorded: did not accelerate their progression | – | – | – | – | – | – |
| CHHHRHSF [Vasculotide, 4-armed maleimide-functionalized polyethylene glycol (PEG) backbone to link together four cysteine-capped T7 peptides, that is, CHHHRHSF] | – | no significant effect on survival rates (Fig2E) or the progression of lymphatic metastases | no significant effect on survival rates | reportedly activates Tie2 phosphorylation | reduced intraperitoneal leukocyte influx | prevented inflammatory induction of lung vascular hyperpermeability | promoted wound healing |
